The source of these data is paper PMC7503712, “Enterovirus Inhibition by Hinged Aromatic Compounds with Polynuclei” (Molecules, 2020).

Bounds are passed on as bounds.

Series [1] in a line: Lipophilicity by shake-flask method with UV spectrometry. Format: physicochemical. To be noted: n-octane and water, 25 ± 1 °C, average of three independent experiments. The protocol:
The log P values associated with the molecular lipophilicity of all hinged aromatic compounds with polynuclei were obtained by use of the ''shake-flask method'' [46]. The partition coefficient was measured as the ratio of the equilibrium concentrations of a dissolved hinged compound in a two-phase system consisting of n-octane and water, which are immiscible solvents. The temperature was kept constant at 25 ± 1 °C. The analytical method employed was UV spectrometry.

Series [2] in a line: Adverse effect on host cell metabolism (MTS method) in RD cells. Format: cell-based. To be noted: human, RD (rhabdomyosarcoma) cells, RD host cell metabolism reduced by 50%. The protocol:
(§1) The selectivity index (SI = CC50/EC50), a measure for the therapeutic window of the compound in the assay system, was then calculated. The antiviral effect of hinged aromatic compounds that adversely affected the host cell metabolism was likely as a result of a pleiotropic or non-specific effect on the host cell. […].
(§2) The biological activity of the 18 hinged aromatic compounds against EV71 was evaluated in a cell-based assay with live enteroviruses. The EV71 strains were originated from Chang Gung University of Taiwan. The rhabdomyosarcoma (RD) cells, grown for 3–4 days in tissue culture flasks, were harvested and seeded in MEM Rega 3 medium (Gibco, Merelbeke, Belgium) supplemented with fetal bovine serum (FBS, 2.0%, Integro, Merelbeke, Belgium), 200 mM L-glutamine (Gibco, Merelbeke, Belgium), and aqueous 7.5% NaHCO3 (Gibco, Merelbeke, Belgium). The microtitre plates were incubated overnight to produce a non-confluent cell monolayer. Then assay plates were transferred to a liquid handling platform, on which a sample dilution series was prepared at a sample concentration of 0.100 mg/mL or lower in DMSO. After preparation of the hinged compound dilution series, virus was added to the wells with a dilution optimized for each EV71 strain. The final, maximal DMSO concentration that reached in the assay wells with the highest sample input (1.0%) was tolerated well by the cells. The assay plates were returned to the incubator at 37 °C (5.0% CO2) for four days. According to the manufacturers’ instructions (Promega, Leiden, The Netherlands), residual cell viability was then quantified by use of an MTS readout method.
For orientation: Tetrazolium assays rely on reduction of a dye to a coloured formazan, in cell work by metabolically active cells.

In series [3] the test system is EV71 strain BrCr. Briefly: Antiviral activity on the replication of EV71 strain BrCr in RD cells. To be noted: for EC50: Enterovirus A, virus replication inhibited by 50%. Format: cell-based, Enterovirus 71. The procedure:
as §1, §2

As for `O=C(Nc1ccc(F)cc1)c1ccc(-c2cccc(-c3cc[nH]n3)c2)o1` [12a, N-(4-Fluorophenyl)-5-[3-(1H-pyrazol-3-yl)phenyl]furan-2-carboxamide], in series [1], the logD hydrocarbon water was found to be 4.18. This molecule came in with a CC50 at 4 days in series [2] of 4.53 ± 0.1 µM. Moreover, the concentration for a half-maximal effect (EC50) in series [3] was under 1.73 µM.

In series [1], `O=C(c1ccc(-c2cccc(-c3cc[nH]n3)c2)o1)N1CCOCC1` [21a] displayed a logD hydrocarbon water of 2.6. The EC50 in series [3] amounted to 11.6 ± 0.3 µM.

For `O=C(c1ccc(-c2cccc(-c3cc[nH]n3)c2)o1)N1CCCCCC1` [10c, Azepan-1-yl(5-[3-(1H-pyrazol-3-yl)phenyl]furan-2-yl)methanone], the logD hydrocarbon water in series [1] came out at 4.22. Besides, in series [2], the 50% cytotoxic concentration (CC50) at 4 days worked out at 81.1 ± 3 µM. In series [3], the “SI (selectivity index = CC50/EC50)” value is listed as 13.1 and the 50% effective concentration (EC50) came out at 6.16 ± 0.15 µM.

Molecule `O=C(c1ccc(-c2cccc(-c3cc(-c4ccccc4)[nH]n3)c2)s1)N1CCOCC1` [21g, Morpholino(5-[3-(5-phenyl-1H-pyrazol-3-yl)phenyl]thiophen-2-yl)methanone] had a melting point of 239.6 to 241.8 °C. Also, the logD hydrocarbon water in series [1] came out at 4.61. The molecule also yielded an EC50 in series [3] of 241 ± 3 µM.

The molecule `O=C(NC1CC1)c1ccc(-c2cccc(-c3cc[nH]n3)c2)o1` [compound 13, N-Cyclopropyl-5-[3-(1H-pyrazol-3-yl)phenyl]furan-2-carboxamide] yielded a logD hydrocarbon water in series [1] of 3.25. Further, in series [3], the concentration for a half-maximal effect (EC50) was 15.1 ± 1 µM.

As to `O=C(c1ccc(-c2cccc(-c3cc[nH]n3)c2)o1)N1CCCC1` [10a, (5-[3-(1H-Pyrazol-3-yl)phenyl]furan-2-yl)(pyrrolidin-1-yl)methanone], the logD hydrocarbon water in series [1] turned out to be 3.42. The molecule further displayed a CC50 at 4 days in series [2] of 119 ± 2 µM. In series [3], the “SI (selectivity index = CC50/EC50)” value is 7.30 and a half-maximal response (EC50) required 16.2 ± 1 µM.

In series [1], `Cc1ccc(-c2cc(-c3cccc(-c4ccc(C(=O)N5CCOCC5)o4)c3)n[nH]2)cc1` [21d, Morpholino[5-(3-[5-(p-tolyl)-1H-pyrazol-3-yl]phenyl)furan-2-yl]methanone] displayed a logD hydrocarbon water of 4.3. This molecule also yielded a CC50 at 4 days in series [2] of 3.25 ± 0.3 µM.

As to `O=C(c1ccc(-c2cccc(-c3cc(-c4ccc(C(F)(F)F)cc4)[nH]n3)c2)s1)N1CCOCC1` [21i, Morpholino(5-[3-(5-[4-(trifluoromethyl)phenyl]-1H-pyrazol-3-yl)phenyl]thiophen-2-yl)-methanone], the logD hydrocarbon water in series [1] amounted to 5.04. In series [2], this molecule yielded a half-maximal cytotoxic concentration (CC50) at 4 days of 76.4 ± 3 µM. In addition, in series [3], the “SI (selectivity index = CC50/EC50)” value came out at 33.4 and the EC50 is 2.29 ± 0.1 µM.

In series [1], `O=C(c1ccc(-c2cccc(-c3cc(-c4ccc(C(F)(F)F)cc4)[nH]n3)c2)o1)N1CCOCC1` [21f, Morpholino(5-[3-(5-[4-(trifluoromethyl)phenyl]-1H-pyrazol-3-yl)phenyl]furan-2-yl)-methanone] gave a logD hydrocarbon water of 4.33. The molecule further returned a 50% cytotoxic concentration (CC50) at 4 days in series [2] of 3.28 ± 0.11 µM. For the same molecule, the EC50 in series [3] was under 1.28 µM.

In the case of `COc1ccc(-c2cc(-c3cccc(-c4ccc(C(=O)N5CCOCC5)o4)c3)n[nH]2)cc1` [21e, Morpholino[5-(3-[5-(4-methoxyphenyl)-1H-pyrazol-3-yl]phenyl)furan-2-yl]methanone], the logD hydrocarbon water in series [1] amounted to 3.96. For the same molecule, in series [2], the CC50 at 4 days came to 2.09 ± 0.1 µM. Moreover, in series [3], the EC50 is under 1.4 µM.

Molecule `O=C(c1ccc(-c2cccc(-c3cc[nH]n3)c2)o1)N1CCCCC1` [10b, Piperidin-1-yl(5-[3-(1H-pyrazol-3-yl)phenyl]furan-2-yl)methanone] showed a logD hydrocarbon water in series [1] of 3.87. The CC50 at 4 days in series [2] came out at 14.3 ± 1 µM. Besides, in series [3], the “SI (selectivity index = CC50/EC50)” value is 6.70 and the half-maximal effective concentration (EC50) came to 2.14 ± 0.12 µM.

As to `Cn1ccc(-c2cccc(-c3ccc(C(=O)N4CCOCC4)o3)c2)n1` [compound 23, Morpholino(5-[3-(1-methyl-1H-pyrazol-3-yl)phenyl]furan-2-yl)methanone], the logD hydrocarbon water in series [1] was 2.75. The same molecule returned an EC50 in series [3] of 34.6 ± 1 µM.

For `CCOC(=O)c1ccc(OCCC2CCN(c3ccc(C)nn3)CC2)cc1` [Pirodavir, reference compound], the CC50 at 4 days in series [2] was over 54 µM. In addition, in series [3], the midpoint of the response, the EC50, lay at 0.3 ± 0.1 µM.

As to `COc1ccc(NC(=O)c2ccc(-c3cccc(-c4cc[nH]n4)c3)o2)cc1` [12b, N-(4-Methoxyphenyl)-5-[3-(1H-pyrazol-3-yl)phenyl]-furan-2-carboxamide], the logD hydrocarbon water in series [1] was determined as 4.15. The same molecule registered a CC50 at 4 days in series [2] of 21 ± 1.5 µM. Besides, in series [3], the “SI (selectivity index = CC50/EC50)” value was 8.70 and the EC50 amounted to 2.41 ± 0.3 µM.

`O=C(c1ccc(-c2cccc(-c3cc(-c4ccccc4)[nH]n3)c2)o1)N1CCOCC1` [21c, Morpholino-(5-[3-(5-phenyl-1H-pyrazol-3-yl)phenyl]furan-2-yl)methanone] came in with a logD hydrocarbon water in series [1] of 3.92. This molecule showed a CC50 at 4 days in series [2] of 4.13 ± 0.12 µM.

`COc1ccc(-c2cc(-c3cccc(-c4ccc(C(=O)N5CCOCC5)s4)c3)n[nH]2)cc1` [21h, [5-(3-[5-(4-Methoxyphenyl)-1H-pyrazol-3-yl]phenyl)thiophen-2-yl](morpholino)methanone] registered a logD hydrocarbon water in series [1] of 4.64. The molecule further yielded a CC50 at 4 days in series [2] of 41.9 ± 2.2 µM. Also, in series [3], the “SI (selectivity index = CC50/EC50)” value stood at 10.2 and the EC50 was determined as 4.1 ± 0.12 µM.

`Cn1c(C(=O)N2CCOCC2)ccc1-c1cccc(-c2cc[nH]n2)c1` [21j, Morpholino(5-[3-(1H-pyrazol-3-yl)phenyl]-1-methyl-1H-pyrrol-2-yl)methanone]: the logD hydrocarbon water in series [1] amounted to 2.56. In series [3], this molecule displayed a concentration for a half-maximal effect (EC50) of 223 ± 2 µM.

In series [1], `Cc1cc(-c2cccc(-c3ccc(C(=O)N4CCOCC4)o3)c2)n[nH]1` [21b, Morpholino-(5-[3-(5-methyl-1H-pyrazol-3-yl)phenyl]furan-2-yl)methanone] yielded a logD hydrocarbon water of 2.87. The EC50 in series [3] was found to be 13 ± 2.5 µM.

In the case of `COCCNC(=O)c1ccc(-c2cccc(-c3cc[nH]n3)c2)s1` [compound 14, N-(2-Methoxyethyl)-5-[3-(1H-pyrazol-3-yl)phenyl]thiophene-2-carboxamide], the logD hydrocarbon water in series [1] was found to be 3.15. This molecule gave a CC50 at 4 days in series [2] of 22.4 ± 2.5 µM.

A word on the CC50: it is the concentration at which the toxic effect on the cells reaches its halfway point. Lower therefore signals greater toxicity to the cells. The term EC50 denotes the concentration needed to bring the measured effect to its halfway point. The term melting point denotes the temperature of the solid-liquid transition.
